Data published in patent US9151743B2, “Use of EEF1A as biomarker and a method of screening MetAP2 inhibitors” (MERCK PATENT GMBH, priority 2008, dated 2015).

Legend:
[1] = system: bEND3, HT1080, HCT116 cells (EEF1A1 Band 2); test: IEF separation of cellular extracts after MetAP2 inhibitor treatment, Coomassie Blue staining; format: cell-based, mouse, human; conditions: 100 nM TNP-470; 1 μM A-832234; versus DMSO-treated cells
Protocol: (§1) Cellular extracts were electrophoretically separated for detailed analysis. Isoelectric focusing electrophoresis was performed in a gradient range of pH 7-9. The IEF gels (CleanGel IEF ultra ETC1001-52 from ETC, Germany) were re-hydrated in 7 M urea, 2 M thiourea, 1% DTE, 4% CHAPS, 3%, Servalyte 7-9 for 120 min, and assembled on a Multiphor II electrophoresis unit (GE Healthcare). Samples (5 μl) were applied close to the anode and run with anode buffer (6 M glycine) and cathode fluid 10 (Serva, Germany). […] Separation was performed at 2000 V for 210 min, followed by band sharpening at 2500 V for 10 min. After removal the gel was equilibrated in transfer buffer (50 mM Tris-HCl pH 7.5, 4 M guanidinium chloride, 1 mg/ml DTT) for a diffusion blot onto PVDF membrane and run overnight. Subsequently, the membrane was stained either with Coomassie Blue or immunostained with rabbit PcAb anti-human EEF1A1 (Proteintech Group, USA; 11402-1-AP) for 3 h and detected with ECL-Plus reagent (GE Healthcare).
IEF separation of cellular extracts after treatment of different endothelial and cancer cells (mouse: bEND3, human: HT1080, HCT116) was performed in a range of pH 7-9 (FIG. 1). Comparing extracts from DMSO-treated and MetAP2 inhibitor-treated (100 nM TNP-470; […] . A zoomed view is shown in FIG. 2.

MetAP2 = MetAP2 (Homo sapiens, UniProt P50579); test: Inhibition of MetAP2 activity: cleavage of tripeptide Met-Ala-Ser, enzyme-coupled detection of methionine; format: biochemical
EEF1A1 in bEND3 cells = test: EEF1A1 electrophoretic mobility shift in IEF gel, bEND3 cell extracts; format: cell-based, mouse; conditions: for EEF1A1 mobility shift versus negative controls (FIG. 10): bEND3 cells, 48 h, concentrations of Table 1
Protocol: as §1
The compounds used were characterized as inhibitors of MetAP2 and inhibitors of HUVEC cell proliferation with the indicated potencies (IC50).

HUVEC endothelial cells = test: Inhibition of HUVEC cell proliferation (colorimetric BrdU-Elisa); conditions: Homo sapiens, 72 h, read-out: Inhibition of HUVEC proliferation (BrdU incorporation) (IC50)
Protocol: In this case the compounds were incubated in serial dilutions with the HUVEC endothelial cells for 72 h and subsequently processed for BrdU detection.

Sequence of MetAP2 (P50579 whole entry, species assumed): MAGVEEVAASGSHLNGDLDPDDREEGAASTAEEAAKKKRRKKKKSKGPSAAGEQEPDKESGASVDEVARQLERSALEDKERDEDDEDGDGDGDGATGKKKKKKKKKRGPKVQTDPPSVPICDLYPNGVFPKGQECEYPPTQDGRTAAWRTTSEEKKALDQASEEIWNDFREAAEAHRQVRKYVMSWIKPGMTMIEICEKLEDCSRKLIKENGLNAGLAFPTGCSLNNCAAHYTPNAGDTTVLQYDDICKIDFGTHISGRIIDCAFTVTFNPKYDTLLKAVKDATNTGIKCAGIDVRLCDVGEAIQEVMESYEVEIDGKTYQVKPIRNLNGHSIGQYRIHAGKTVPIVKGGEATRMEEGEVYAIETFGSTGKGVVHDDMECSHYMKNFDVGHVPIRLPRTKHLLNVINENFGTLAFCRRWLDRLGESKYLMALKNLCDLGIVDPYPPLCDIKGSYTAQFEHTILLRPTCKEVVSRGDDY

Question: For `CO[C@@H]1[C@H](OC(=O)NC(=O)CCl)CC[C@]2(CO2)[C@H]1[C@@]1(C)O[C@@H]1CC=C(C)C` [TNP470], which “new protein band (Band 2) after IEF pH 7-9” value [1] is on record?
Answer: a novel protein band

Question: And the IC50 (MetAP2)?
Answer: 14 nM

Question: And the “EEF1A1 mobility shift, time course” value (EEF1A1 in bEND3 cells; bEND3 cell extract, TNP470, up to 48 h)?
Answer: a second band (Band 2) with increasing intensity was already to be seen after 2 h

Question: What about the “EEF1A1 mobility shift versus negative controls (FIG. 10)” value (EEF1A1 in bEND3 cells) of the same molecule?
Answer: active MetAP2 inhibitors

Question: And the IC50 (HUVEC endothelial cells)?
Answer: 0.1 nM

Question: `CCN(CC)C/C=C\c1cc(F)ccc1S(=O)(=O)Nc1ccc2c(c1C(=O)O)CCCC2` [Compound A-832234, 2-[2-((Z)-3-Diethylamino-propenyl)-4-fluoro-benzenesulfonylamino]-5,6,7,8-tetrahydro-naphthalene-1-carboxylic acid] was tested. Which “new protein band (Band 2) after IEF pH 7-9” value [1] did it give?
Answer: a novel protein band

Question: What about the “EEF1A1 mobility shift versus negative controls (FIG. 10)” value (EEF1A1 in bEND3 cells) of the same molecule?
Answer: active MetAP2 inhibitors
